Here are results for one compound from patent publication US9949976B2, “Kinase inhibitor and use thereof” (Sihuan Pharmaceutical Holdings Group Ltd., priority 2013, dated 2018).

The term T/C denotes the ratio of treated to control. As usually defined, the IC50 is the concentration that inhibits the measured activity by half.

The subject of experiment [1] is Capan-1 human pancreatic cancer cell. The experiment in a line: In vivo pharmacodynamics, subcutaneous Capan-1 pancreatic cancer xenograft model. Also noted: species or system female BALB/c nude mouse. To be noted: Capan-1 xenograft, 100 mg/kg PO QD 21 days. As for the experimental part:
Culture medium of Capan-1 pancreatic cancer cell: IMDM culture medium+10% fetal bovine serum+100 U/mL penicillin and 100 μg/mL streptomycin+2 mM glutamine.
Cells were cultured and passaged. Tumor cells in exponential growth phase were used for in vivo tumor seeding. The cells were seeded subcutaneously to right lateral thorax of female BALB/c nude mouse. When tumor grew to a volume of about 150 mm^3, the animals were grouped and administered with a drug. Compound 1 was orally administrated once a day at an amount of 100 mg/kg, for 21 days. The volume of the drug for administration is 0.1 mL/10 g according to animal's body weight.
Tumor volume was measured with vernier calipers twice a week by measuring the major diameter and the minor diameter. The tumor volume is calculated by the following formula: volume=0.5×(major diameter)×[…]. The relative tumor volume (RTV) and the proliferation ratio (T/C) were calculated according to the result of measurement. RTV=Vt/V0, wherein Vt is the average tumor volume on the t day after grouping, and V0 is the average tumor volume on the day of grouping. T/C=RTV of treatment group/RTV of solvent control group×100%.
SPSS statistical software was used for T test on the 2 groups of independent samples, and for group statistical analysis of tumor volumes. p<0.05 was regarded as having significant difference.

The test system of experiment [2] is MV-4-11 leukemia cell. Kind of experiment: BrdU cell proliferation assay (PerkinElme kit). Format: cell-based. To be noted: Homo sapiens, MV4-11, 48 h; read-out: In vitro cell-inhibiting activity IC50 MV-4-11. As for the experimental part:
(§1) Experimental method: cell proliferation assay was carried out by BrdU method (BrdU cell proliferation assay kit, PerkinElme Company).
(§2) Preparation of gradient dilution solutions of test compound: the stock solution containing 5 mM test compound was diluted by DMSO to prepare a 2 mM solution, then was subjected to 4-fold stepwise dilution to 9 concentration gradients.
MV-4-11 medium: IMDM+10% FBS
(1) Cells grown to exponential growth phase were digested with pancreatin, and centrifuged to collect the cells. The adherent cells were re-suspended in the corresponding culture medium, counted, and seeded to a 96-well plate; H358 cells and SW780 cells were seeded at 4000 cells/well/100 μL; PC3 cells were seeded at 1500 cells/well/100 μL; H441 cells were seeded at 6000 cells/well/100 μL. The plates were placed in a cell incubator at 37° C. After the cells adhered to the wall, the medium was replaced by serum-free medium. The suspended cells MV-4-11 and JeKo-1 were re-suspended with serum-free medium, counted, seeded to a 96-well plate by 10000 cells/well/100 μL and placed in a cell incubator overnight at 37° C. with 5% CO2. […]
(6) To each well, 200 μL of DELFIA Inducer was added and incubated for 15 min at room temperature. Value of fluorescence (Flu) was measured by ELISA instrument […]

Experiment [3] relates to H358 lung cancer cell. Kind of experiment: BrdU cell proliferation assay (PerkinElme kit). Format: cell-based. To be noted: Homo sapiens, NCI-H358, 48 h; read-out: In vitro cell-inhibiting activity IC50 H358. As for the experimental part: as §1, §2
(§3) (1) Cells grown to exponential growth phase were digested with pancreatin, and centrifuged to collect the cells. The adherent cells were re-suspended in the corresponding culture medium, counted, and seeded to a 96-well plate; H358 cells and SW780 cells were seeded at 4000 cells/well/100 μL; PC3 cells were seeded at 1500 cells/well/100 μL; H441 cells were seeded at 6000 cells/well/100 μL. The plates were placed in a cell incubator at 37° C. After the cells adhered to the wall, the medium was replaced by serum-free medium. The suspended cells MV-4-11 and JeKo-1 were re-suspended with serum-free medium, counted, seeded to a 96-well plate by 10000 cells/well/100 μL and placed in a cell incubator overnight at 37° C. with 5% CO2.
(§4) (2) To each well, 99 μL growth medium containing 2×FBS was added, then 1 μL diluted 200× test compound was added to the well. The final concentration of the test compound was 10000, 2500, 625, 156.25, 39.06, 9.77, 2.44, 0.61, 0.15 or 0 nM, and the cells were cultured for 48 h at 37° C.
(§5) (3) To each well, 2 μL 100-fold BrdU labelled solution was added, and the culture medium was sucked by a vacuum pump after incubation in a cell incubator overnight and equilibrated at room temperature for 0.5 h.
(§6) (4) To each well, 100 μL fixing solution was added; the solution was discarded after incubation for 30 min at room temperature.
(§7) (5) To each well, 100 μL 1-fold BrdU-Eu detection antibody solution was added, the solution was discarded after incubation for 1 h at room temperature, and the well was washed with 1-fold washing liquor at 250 μL/well for 5 times.
(§8) (6) To each well, 200 μL of DELFIA Inducer was added and incubated for 15 min at room temperature. Value of fluorescence (Flu) was measured by ELISA instrument
(§9) (2) The data was processed by GraphPad Prism 6 software to get a curve and IC50 values.

The subject of experiment [4] is SW780 bladder cancer cell. Kind of experiment: BrdU cell proliferation assay (PerkinElme kit). Format: cell-based. The note with it: Homo sapiens, SW780, 48 h; read-out: In vitro cell-inhibiting activity IC50 SW780. The method, then: as §1, §2, §3, §4, §5, §6, §7, §8, §9
Experiment [5] concerns PC3 prostatic cancer cell. Kind of experiment: BrdU cell proliferation assay (PerkinElme kit). The format is cell-based. The note with it: 48 h; read-out: In vitro cell-inhibiting activity IC50 PC3. The method, then:
as §1, §2, §3, §4, §5, §6, §7, §8, §9

For experiment [6], the system named is H441 lung cancer cell. The experiment in a line: BrdU cell proliferation assay (PerkinElme kit). The format is cell-based. The note with it: Homo sapiens, NCI-H441, 48 h; read-out: In vitro cell-inhibiting activity IC50 H441. The method, then: as §1, §2, §3, §4, §5, §6, §7, §8, §9
Experiment [7] has as its system JeKo-1 lymphoma cell. The experiment in a line: BrdU cell proliferation assay (PerkinElme kit). Format: cell-based. To be noted: Homo sapiens, JeKo-1, 48 h; read-out: In vitro cell-inhibiting activity IC50 JeKo-1. As for the experimental part:
as §1, §2, §3, §4, §5, §6, §7, §8, §9

Take `CCN1CCN(Cc2cnc(Nc3cc(-c4cc(F)c5nc(C)n(C(C)C)c5c4)c(F)cn3)nc2)CC1` [Compound 1, 5-((4-ethylpiperazin-1-yl)methyl)-N-(5-fluoro-4-(4-fluoro-1-isopropyl-2-methyl-1H-benzo[d]imidazol-6-yl)pyridin-2-yl)pyrimidin-2-amine]: in experiment [1], the T/C worked out at 31.5%. Moreover, the “TGI (inhibition ratio of tumor growth)” value in experiment [1] is 68.5%. For the same compound, the “Tumor volume after administration” value in experiment [1] (average ± standard error) is 368 ± 48 mm^3. Also, the “Tumor volume before administration” value in experiment [1] (average ± standard error) amounted to 150 ± 12 mm^3. In addition, the IC50 in experiment [2] turned out to be 0.139 µM; in experiment [3] it was 0.291 µM; in experiment [4], 0.163 µM; in experiment [5], 0.261 µM; in experiment [6] it was 0.148 µM; in experiment [7], 0.037 µM.
